Source: patent US20220016079A1, “COMBINATION TREATMENT OF HIV INFECTIONS” (priority 2018, published 2022)

Assays:
[1] = tested on: latent HIV in resting CD4+ T-lymphocytes; assay: HIV reactivation in resting CD4+ T-lymphocytes derived from ART-treated HIV patients (HIV RNA in supernatant, qPCR); assay type: cell-based, human
Procedure: The experiments of this example analyzed the ability of DEB10-1143 at reactivating latent HIV in resting CD4+ T-lymphocytes isolated from peripheral blood monocytic cells (PBMCs) derived from HIV patients currently under ART. Drug titration and kinetic studies were conducted. Debio-1143 was tested alone or in combination with ART.
Method: Resting CD4+ T cells were isolated using the EasySep™ Human Resting CD4+ T Cell Isolation Kit, which is designed to isolate resting CD4+ T cells from fresh or previously frozen PBMCs by immunomagnetic negative selection. The EasySep™ procedure involves labeling unwanted cells with antibody complexes and magnetic particles. The magnetically labeled cells are separated from the untouched desired cells by using an EasySep™ magnet and simply pouring or pipetting the desired cells into a new tube. Isolated resting CD4+ T cells (50,000 cells/50 μL) were treated in duplicate for 0, 24, 48 and 72 h with increasing concentrations of DEB10-1143 (0 to 20.5 μM) used alone or in combination with ART (20 μM TDF, 10 μM FTC and 1 μM Raltegravir). Amounts of virions released from cells were quantified at the indicated time points by quantifying HIV RNA levels (HIV RNA copies/mL) in supernatant of cell culture using one-step reverse transcriptase quantitative real-time PCR (ABI custom TaqMan Assays-by-Design) according to the manufacturer's instructions. Primers were 5-[…]-3 and 5-[…]-3, and MGB probe 5-FAM-[…]-Q-3, where FAM is 6-carboxyfluorescein.

[2] = tested on: latent HIV-1 in rCD4+ cells co-cultured with CD8+ cells; assay: HIV-1 reactivation in ex vivo co-cultures of rCD4+ and CD8+ cells from an ART-treated HIV patient (HIV RNA in supernatant); assay type: cell-based, human
Procedure: The efficacy of IAPa, ICI or IAPa/ICI combinations in reversing HIV-1 latency was tested in HIV-1 infected rCD4+ cells co-cultured for 48 h with CD8+ cells from the same donor.
Method: Blood from one HIV-1-infected patient under ART was collected (500 mL) and CD4+ and CD8+ cells isolated using beads coated with specific antibodies following manufacturer's instruction (MojoSort™ Human Cell Isolation Kits from Biolegend). The CD4+ T cells were re-infected with HIV-1 (JR-CSF) (1 μg of p24), incubated for 3 days to allow establishment of infection, and treated with ART ([…]) for 7 days to ensure presence of enough latent HIV CD4+ cells (rCD4+) in the culture. Upon ART removal, rCD4 were then isolated following manufacturer's instruction (EasySep™ Human Resting CD4+ T Cell Isolation Kit). The isolated rCD4 were mixed with autologous (from the same patient) uninfected CD8+ T cells at a 1:1 ratio (100,000 cells) and incubated in duplicate for 48 h with different IAPa ([…]) or ICI (10 μg/ml) in monotherapy, or the IAPa/ICI combinations. Amounts of virions released from cells were quantified at the indicated time points by quantifying HIV RNA levels (HIV RNA copies/mL) in supernatant of cell culture using one-step reverse transcriptase quantitative real-time PCR (ABI custom TaqMan Assays-by-Design) according to the manufacturer's instructions. Primers were 5-[…]-3 and 5-[…]-3, and MGB probe 5-FAM-[…]-Q-3, where FAM is 6-carboxyfluorescein.

[3] = tested on: latent HIV-1 in 2D10 cells; assay: HIV-1 reactivation in latent GFP-reporter 2D10 cells, Debio 1143 and other LRAs alone or in combination; assay type: cell-based; conditions: single agents, 48 h
Procedure: We compared the efficacy of Debio-1143 at reversing HIV-1 latency with that of other LRAs. We then analyzed the cytotoxicity of Debio-1143 with that of the other LRAs on 2D10 cells. Drug titration was conducted.
Methods: HIV-1 latent GFP-reporter 2D10 cells (100,000 cells/100 μL) were treated in triplicate for 48 h with increasing concentrations of either only Debio-1143 or the LRAs (2000 nM or 20000 nM), or with Debio 1143 (2000 nM or 20000 nM) in combination with the LRAs at a single predetermined concentration (see Table 2). HIV reactivation was analyzed via GFP expression by flow cytometry.

[4] = tested on: HIV-1 (JR-CSF); assay: Efficacy study in HIV-1 infected humanized BLT mice: HIV-1 loads in blood (qPCR); assay type: in vivo; conditions: 4 weeks of treatment starting 12 weeks after infection; n=8 per group
From the text: Methods: Humanized BLT mice were generated by implanting human fetal liver and thymus tissues under the kidney capsule of an immunodeficient NOD scid gamma (NSG=NOD.Cg-Prkdc^scidII12rg^tm1Wjl/SzJ) mouse, followed by an administration of autologous human fetal liver CD34+ cells (human hematopoietic stem cells). In BLT mice, T cell education occured in the human thymic tissue, resulting in complete systemic reconstitution of all major human hematopoietic lineages including T, B, monocyte/macrophage, dendritic, and natural killer cells. The extensive systemic and genital mucosal reconstitution with human lymphoid cells rendered female humanized BLT mice susceptible to both vaginal and rectal HIV infection. […]
R5 HIV (JR-CSF) was produced by 293T transfection and quantified by p24 ELISA. Humanized mice were infected with JR-CSF (200 ng of p24) and viral replication quantified weekly by qPCR for up to 16 weeks.
Methods: Thirty-two BLT mice were infected with HIV-1. 12 weeks later mice were split in 4 groups (n=8), treated with various regimen and analyzed for 6 weeks. […] Body weight, HIV-1 loads and PD-1 expression on CD8+ T cells were analyzed once weekly. […] The remaining mice (4×5=20) were sacrificed 2 weeks after treatment completion and viral RNA levels in organ reservoirs (spleen, thymic organoid, lung, spleen, lymph nodes and liver) were quantified by qPCR.

CN[C@@H](C)C(=O)N[C@H]1CN(C(=O)CC(C)C)CC[C@H]2CC[C@@H](C(=O)NC(c3ccccc3)c3ccccc3)N2C1=O [Debio 1143, (5S,8S,10aR)-N-benzhydryl-5-((S)-2-(methylamino)propanamido)-3-(3-methylbutanoyl)-6-oxodecahydropyrrolo[1,2-a][1,5]diazocine-8-carboxamide]
influence of ART on the degree of latency reversal ([1]; in combination with ART (20 μM TDF, 10 μM FTC, 1 μM Raltegravir)): did not influence
time after which reactivation was already maximal ([1]; resting CD4+ T cells from two HIV patients under ART): ≤ 24 h
reactivation of latent HIV (HIV RNA copies/mL in supernatant) ([1]; resting CD4+ T cells from two HIV patients under ART, 0 to 20.5 μM, 0-72 h): possesses the capacity of reactivating latent HIV
latency reversal class (HIV RNA copies/ml in supernatant) ([2]; IAPa 1 μM monotherapy (0.1% DMSO, no ICI), 48 h (Table 3)): 3 (Subsequent classes were defined accordingly in steps of 500 RNA copies/ml)
latency reversal class (HIV RNA copies/ml in supernatant) ([2]; IAPa 1 μM with Control IgG1, 48 h (Table 3)): 3 (Subsequent classes were defined accordingly in steps of 500 RNA copies/ml)
latency reversal class (HIV RNA copies/ml in supernatant) ([2]; IAPa 1 μM with Control IgG2, 48 h (Table 3)): 3 (Subsequent classes were defined accordingly in steps of 500 RNA copies/ml)
HIV-1 latency reversal (GFP expression) [3]: reversed HIV-1 latency
potency as LRA compared with other LRAs [3]: one of the most potent LRA
HIV titers in blood [4]: increased viral titers
